Assay results as given in PubChem BioAssay (NCI).
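A five-concentration, 48-hour dose response in 96-well plates underlies each endpoint, interpolated linearly between surrounding concentrations. At the GI50, growth is halved. TGI marks complete inhibition of growth.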

Columns and labels:
Assay in all cases: NCI anticancer screen, dose series, 48 h
RPMI-8226 leukemia = tested on: RPMI-8226 leukemia
786-0 renal = tested on: 786-0 renal
SW-620 colon = tested on: SW-620 colon
NCI-H226 lung = tested on: NCI-H226 lung
SF-539 CNS = tested on: SF-539 CNS
SK-MEL-5 melanoma = tested on: SK-MEL-5 melanoma
LOX IMVI melanoma = tested on: LOX IMVI melanoma
HT29 colon = tested on: HT29 colon
HL-60(TB) leukemia = tested on: HL-60(TB) leukemia
HCT-116 colon = tested on: HCT-116 colon

| SMILES | TGI (RPMI-8226 leukemia) [µM] | TGI (786-0 renal) [µM] | TGI (SW-620 colon) [µM] | TGI (NCI-H226 lung) [µM] | TGI (SF-539 CNS) [µM] | TGI (SK-MEL-5 melanoma) [µM] | TGI (LOX IMVI melanoma) [µM] | TGI (HT29 colon) [µM] | TGI (HL-60(TB) leukemia) [µM] | TGI (HCT-116 colon) [µM] | GI50 (RPMI-8226 leukemia) [µM] | GI50 (786-0 renal) [µM] | GI50 (NCI-H226 lung) [µM] | GI50 (HL-60(TB) leukemia) [µM] | GI50 (HCT-116 colon) [µM] | GI50 (LOX IMVI melanoma) [µM] | GI50 (HT29 colon) [µM] | GI50 (SW-620 colon) [µM] | GI50 (SF-539 CNS) [µM] | GI50 (SK-MEL-5 melanoma) [µM] |
| --- | --- | --- | --- | --- | --- | --- | --- | --- | --- | --- | --- | --- | --- | --- | --- | --- | --- | --- | --- | --- |
| Cc1ccccc1SC(/C=C/NNC1=NC(c2ccccc2)C(c2ccccc2)=NN1)c1ccccc1 (stereo unspecified) | > 100 | 25.9 | > 100 | 52 | 27.6 | > 100 | > 100 | > 100 |  |  |  |  |  |  |  |  |  |  |  |  |
| O=[N+]([O-])c1cc(I)cc(/C=N/NS(=O)(=O)c2ccc(F)cc2)c1O | 54.8 | 82.9 | > 100 |  | 55.8 | 45.2 | 57.4 | 46.5 | 54.4 | 43.3 |  |  |  |  |  |  |  |  |  |  |
| CON1C(=O)C2(CCCCC2)C(=O)C12C=CC(C)CC2 (stereo unspecified) | > 100 | > 100 | > 100 | > 100 | > 100 | > 100 | > 100 | > 100 | > 100 |  |  |  |  |  |  |  |  |  |  |  |
| CC1CCCc2c1n[nH]c2CC1CC(=O)NC(=O)C1 (stereo unspecified) | > 100 | > 100 | > 100 | > 100 | > 100 |  | > 100 | > 100 | > 100 | > 100 |  |  |  |  |  |  |  |  |  |  |
| CC(=O)CCc1ccc(Oc2c3ccccc3nc3occc23)cc1 | 53.9 | 45.2 |  | 34.3 |  |  | 41.8 | 50.6 | 74.5 | 79.5 | 13.8 | 18.5 | 15.5 | 8.67 | 19.1 | 14.8 | 18 |  |  |  |
| CCCCCCCCCCNC(=S)OC | 36.7 | > 100 | > 100 |  | > 100 | 54.1 | 39.6 | > 100 | 44.8 | > 100 |  |  |  |  |  |  |  |  |  |  |
| CC(=O)NNc1ncc(C(=O)/C=C/c2ccccc2C)s1 | > 100 | > 100 | > 100 |  | > 100 | > 100 | > 100 | > 100 | > 100 |  |  |  |  |  |  |  |  |  |  |  |
| CO[C@H]1/C=C/O[C@@]2(C)Oc3c(C)c(O)c4c(O)c(c(/C=N/N5C(C)CN(Cc6ccc(C#N)cc6)CC5C)c(O)c4c3C2=O)NC(=O)/C(C)=C\C=C\[C@H](C)[C@H](O)[C@@H](C)[C@@H](O)[C@@H](C)[C@H](OC(C)=O)[C@@H]1C (stereo partly specified) |  | 16.8 | 17.5 | 12.9 | 13 | 12.3 | 13.4 | 14.4 | 18.6 | 12.7 |  | 8.79 | 6.06 | 7.19 | 5.41 | 6.84 | 6.87 | 8.15 | 6.22 | 5.91 |
| COc1cccc(C2SC(C)C(=O)N2NC(=O)C(O)c2ccccc2)c1 (stereo unspecified) | > 100 | > 100 | > 100 | > 100 | > 100 | > 100 | > 100 | > 100 |  | > 100 | > 100 | > 100 | > 100 |  | > 100 | > 100 | > 100 | > 100 | > 100 | > 100 |
| Cn1nc(-c2ccccc2)c2c(/C=C/c3ccc(F)cc3)onc2c1=O | > 100 | > 100 | > 100 |  | > 100 | > 100 | > 100 | > 100 | > 100 | > 100 |  |  |  |  |  |  |  |  |  |  |
